Where two headings read alike, the source gives them in different places.

Assay [1] addresses T1, CatSper (Homo sapiens, UniProt Q7RTX7+Q86XQ3+Q8NEC5+Q96P56).
T1 construct: Motile spermatozoa were selected by a ‘swim-up’ procedure; endogenous in cells; host or cells: motile human spermatozoa (swim-up) from healthy donors
Put plainly: Steroid-induced increase in [Ca2+]i in human sperm (Fluo-4 HTS assay, screen 1 activators). In kind it is cell-based. Conditions: for Emax: read-out: Max amplitude (%) (± SD). The method, then:
(§1) Briefly, motile spermatozoa were selected by swim-up and labeled with the fluorescent calcium indicator Fluo-4 a.m. to image changes in [Ca^2+]i. After centrifugation to remove excess dye, Fluo-4 AM loaded cells were distributed in a 384-wells plate to obtain ∼125,000 cells/well. After measuring basal fluorescence, a first injection of compounds was performed in order to evaluate their effect on [Ca^2+]i alone. This first screen is therefore considered as a screen to search for ‘activators’. Fluorescence was recorded for 12 min during which sperm cells were continuously exposed to compounds. P4 or PGE1 were then added in the same wells to evaluate whether the tested compounds can reduce the ligand-induced activation of CatSper. This second screen was therefore considered to be a search for CatSper ‘inhibitors’.
Human semen samples were collected from healthy donors by masturbation after a recommended sexual abstinence period of minimum 2 days. Semen samples were allowed to liquefy at 37°C for 15–30 min. […] Motile sperm were allowed to swim at 37°C for 1 hour. The supernatant was collected in 15 mL Falcon tubes and washed twice by centrifugation at 700 x g for 20 min. Sperm were supplemented with 3 mg/mL HSA.
20 μL of cells (corresponding to ∼125,000 cells) loaded with Fluo-4 a.m. were dispensed in a 384-wells plate (Corning, NY, United States) to allow fluorescence measurement. The dye was excited at 480 nm, and emission was recorded at 530 nm. The change in [Ca^2+]i was assessed simultaneously in all wells using a Functional Drug Screening System (FDSS/μCELL) (Hamamatsu Phototonics K.K., Yokohama, Japan) at 37°C. Basal fluorescence was first measured for 30 s. […] P4 and PGE1 were tested at a near-saturating concentration in the HTS in order to evaluate a potential additive or synergistic effect induced by the compounds. […] For alkalization-induced Ca^2+ measurement, NH4Cl was used as a positive control at a final concentration of 10 mM. […] The Prestwick library was tested in technical duplicate. Ca^2+ response curves were normalized using the following formula F−F0/F0×100 , where F 0 is the average of the basal fluorescence prior to the addition of the compound of interest and F corresponds to the fluorescence value at each time point. The ∆F/F0 of the vehicle control (DMSO) was subtracted from all the other values to adjust for dilution and pipetting artifacts. The values of all compounds were normalized to their respective controls.
Data are shown as mean ± standard deviation (SD) with “n” referring to the number of independent experiments performed using sperm samples from ≥3 different donors. Statistical analysis and fitting of dose-response relations were performed using GraphPad Prism 8.1.1 (Prism, La Jolla, United States). To generate sigmoidal curves, the concentrations were converted to their respective log values, and the data were normalized using the following formula: 100⋅x/Fmax , where Fmax is the maximum value of the positive control. A four-parameter Hill equation with a variable Hill coefficient was fitted to generate the EC02, EC50, and IC50. Statistical significance between control and treated conditions was evaluated using a one-way analysis of variance (ANOVA), followed by Dunnett´s test. A p-value <0.05 was considered significant.

The target of assay [2] is T1, CatSper. Put plainly: Inhibition of P4-induced Ca2+ influx in human sperm (screen 2 inhibitors). In kind it is cell-based. Conditions: for Max P4 inhibition (%) (± SD): 3 independent experiments. The method, then: as §1
(§2) Human semen samples were collected from healthy donors by masturbation after a recommended sexual abstinence period of minimum 2 days. Semen samples were allowed to liquefy at 37°C for 15–30 min. Motile spermatozoa were selected by a ‘swim-up’ procedure as previously described ([Strünker et al., 2011]). Briefly, 1 mL of semen was deposited in a 45°-inclined 50 mL Falcon tube with 4 mL of Human Tubular Fluid (HTF) medium containing: 93.8 mM NaCl, 4.7 mM KCl, 0.2 mM MgSO4, 0.37 mM KH2PO4, 2.04 mM CaCl2, 20.98 mM HEPES, 2.78 mM glucose, 21.4 mM Na-lactate, 4 mM NaHCO3, 0.33 mM Na-pyruvate, and the pH was adjusted to 7.35. Motile sperm were allowed to swim at 37°C for 1 hour. The supernatant was collected in 15 mL Falcon tubes and washed twice by centrifugation at 700 x g for 20 min. Sperm were supplemented with 3 mg/mL HSA. Written informed consent was obtained from all donors prior to donation and approved by the Cantonal Ethics Committee of the State of Geneva (CCER #14-147).
(§3) Cells were loaded with the fluorescent Ca^2+ indicator Fluo-4 AM at a final concentration of 2.5 µM for 30 min at 37°C. Excess dye was washed via centrifugation at 700 x g for 20 min and sperm were resuspended in HTF medium to obtain a final concentration of 6.25 x 10^6 cells/mL. 20 μL of cells (corresponding to ∼125,000 cells) loaded with Fluo-4 a.m. were dispensed in a 384-wells plate (Corning, NY, United States) to allow fluorescence measurement. The dye was excited at 480 nm, and emission was recorded at 530 nm. The change in [Ca^2+]i was assessed simultaneously in all wells using a Functional Drug Screening System (FDSS/μCELL) (Hamamatsu Phototonics K.K., Yokohama, Japan) at 37°C. Basal fluorescence was first measured for 30 s. […] P4 and PGE1 were tested at a near-saturating concentration in the HTS in order to evaluate a potential additive or synergistic effect induced by the compounds. Non-specific CatSper inhibitor MDL 12330A was used as a negative control at final concentration of 20 µM while DMSO was used as a vehicle control. For alkalization-induced Ca^2+ measurement, NH4Cl was used as a positive control at a final concentration of 10 mM. Fluorescence was recorded for a total of 16.5 min: 30 s before injection, 12 min after the first injection of the tested compounds, and 4 min after the second injection of either P4 or PGE1. The Prestwick library was tested in technical duplicate. Ca^2+ response curves were normalized using the following formula F−F0/F0×100 , where F 0 is the average of the basal fluorescence prior to the addition of the compound of interest and F corresponds to the fluorescence value at each time point. The ∆F/F0 of the vehicle control (DMSO) was subtracted from all the other values to adjust for dilution and pipetting artifacts. The values of all compounds were normalized to their respective controls.

Assay [3] has as its target T1, CatSper. Kind of assay: Inhibition of PGE1-induced Ca2+ influx in human sperm (screen 2 inhibitors). In kind it is cell-based. How it is done:
as §1, §2, §3

Assay [4] has as its system human sperm. Put plainly: Sperm penetration in viscous media (modified Kremer test). In kind it is cell-based. Conditions: steroids 10 µM, P4 5 µM, 1 h, 1% methylcellulose. The method, then:
The ability of sperm to penetrate in viscous media similar in viscosity to that found in the female reproductive tract was assessed using the modified Kremer test, as previously described ([Rahban et al., 2021]). Briefly, swim-up recovered and capacitated sperm cells at 3 x 10^6/mL were incubated in the absence (DMSO) or presence of steroids (10 µM), or P4 (5 µM) as a positive control for 1 h at 37°C. A glass capillary (0.2 × 4.0 × 50 mm, CM scientific, UK) was filled with 1% (w/v) methylcellulose (MC, 4000 centipoises cP) prepared with HTF media supplemented with 3 mg/mL HSA, respective compounds (10 µM), P4 (5 µM), or DMSO. The glass capillary tube was then sealed on one end with wax (Vitrex, UK) and added to the sperm cells on the open end. Sperm penetration was assessed after 1 h of incubation at 37°C by counting sperm at 1 cm using a microscope with a ×10 objective.

Assay [5] has as its target T1, CatSper. Details: method as in Carlson et al., 2022b. Conditions: ref Carlson et al., 2022b; read-out: IC50 inhibiting P4-induced response; cited from earlier work.
The mark [6] stands for this setting: maximal amplitude of steroid-induced [Ca2+]i increase, relative to P4, 3 independent experiments.
The mark [7] stands for this setting: pooled from 3 independent experiments, read-out: Mean EC50 µM (±SD).
Where [8] appears, read: P4-induced response, pooled from 3 independent experiments, read-out: Mean IC50 (P4) µM (±SD).
[9] abbreviates: PGE1-induced response, pooled from 3 independent experiments, read-out: Mean IC50 (PGE1) µM (±SD).

Regarding `C[C@]12CC[C@@H]3c4ccc(OS(=O)(=O)O)cc4CC[C@H]3[C@@H]1CCC2=O` [Estropipate], the “effective concentrations as low as (dose-dependent increase in [Ca2+]i)” value in assay [1] is 10 nM. Further, the EC50 in assay [1] (increase in [Ca2+]i, dose-response 90 µM to 0.3 nM, read-out: EC50 (±SD)) amounted to 0.161 µM; in assay [1] (setting [7]), 0.159 µM. Also, the Emax in assay [1] (setting [6]) was 106%. Besides, the “increase in [Ca2+]i (in words)” value in assay [1] (steroids 10 µM) is “highest increase in [Ca^2+]i”. Further, in assay [2], the “Max P4 inhibition (%) (± SD)” value was 90 (±10) %. Further, the IC50 was found to be 0.28 µM in assay [2] (setting [8]); 0.288 µM in assay [2] (inhibition of P4-induced Ca2+ response, dose-response 90 µM to 0.3 nM, read-out: IC50 (±SD)); 0.282 µM in assay [3] (setting [9]). The “number of sperm penetrating viscous medium at 1 cm” value in assay [4] was “significant increase in cell number”.
Consider `C[C@]12CCC(=O)C=C1CC[C@@H]1[C@@H]2[C@@H](O)C[C@]2(C=O)[C@@H](C(=O)CO)CC[C@@H]12` [aldosterone], for which the IC50 in assay [5] is 33.1 µM.
For `C[C@]12CCC(=O)C=C1C=C[C@@H]1[C@@H]2CC[C@@]2(C)[C@H]1CC[C@@]2(O)CCC(=O)[O-].[K+]` [canrenoic acid potassium salt], the “Max amplitude (%) (± SD)” value in assay [1] (setting [6]) is 34 (±2) %. Also, in assay [1] (setting [7]), the EC50 came to 23.4 µM. Further, the “Max P4 inhibition (%) (± SD)” value in assay [2] is 27 (±10) %. The IC50 came to 23.2 µM in assay [2] (setting [8]) and 16.3 µM in assay [3] (setting [9]).
Turning to `CC(=O)O[C@]1(C(C)=O)CC[C@H]2[C@@H]3C=C(Cl)C4=CC(=O)CC[C@]4(C)[C@H]3CC[C@@]21C` [chlormadinone acetate], the Emax in assay [1] (setting [6]) was 4%. In assay [1] (setting [7]), the EC50 is 34.7 µM. Besides, in assay [2], the “Max P4 inhibition (%) (± SD)” value was 0 (±15) %. In addition, in assay [3] (setting [9]), the IC50 amounted to 38.4 µM.
As for `C#C[C@]1(O)CC[C@H]2[C@@H]3CCc4cc(O)ccc4[C@H]3CC[C@@]21C` [ethinylestradiol], the Emax in assay [1] (setting [6]) came out at 69%. In addition, the EC50 in assay [1] (setting [7]) amounted to 1.8 µM. For the same compound, in assay [2], the “Max P4 inhibition (%) (± SD)” value is 50 (±14) %. Moreover, the IC50 was 3.36 µM in assay [2] (setting [8]) and 6.68 µM in assay [3] (setting [9]).
The like results for `C#C[C@]1(OC(C)=O)CC[C@H]2[C@@H]3CCC4=C[C@@H](OC(C)=O)CC[C@@H]4[C@H]3CC[C@@]21C` [ethynodiol diacetate] were, in that order, 35%, 17.7 µM, 22 (±14) %, 13.9 µM and 12.2 µM.
Turning to `CC(C)(C)NC(=O)[C@H]1CC[C@H]2[C@@H]3CC[C@H]4NC(=O)C=C[C@]4(C)[C@H]3CC[C@]12C` [finasteride], the Emax in assay [1] (setting [6]) was 39%. In assay [1] (setting [7]), the EC50 worked out at 0.78 µM. The “Max P4 inhibition (%) (± SD)” value in assay [2] is listed as 18 (±6) %. Besides, in assay [3] (setting [9]), the IC50 is more than 100 µM.
On to `C#C[C@]1(O)CC[C@H]2[C@@H]3CCC4=CC(=O)CC[C@@H]4[C@H]3CC[C@@]21CC` [levonorgestrel], for which, in assay [5], the IC50 is 32.3 µM.
With `C#C[C@]1(O)CC[C@H]2[C@@H]3CCC4=CCCC[C@@H]4[C@H]3CC[C@@]21C` [lynestrenol], the Emax in assay [1] (setting [6]) came to 59%. Moreover, the EC50 in assay [1] (setting [7]) turned out to be 17.3 µM. For the same compound, in assay [2], the “Max P4 inhibition (%) (± SD)” value is 47 (±27) %. The IC50 in assay [2] (setting [8]) turned out to be 9.36 µM; in assay [3] (setting [9]), 11.7 µM.
For the compound `CC(=O)O[C@]1(C(C)=O)CC[C@H]2[C@@H]3C[C@H](C)C4=CC(=O)CC[C@]4(C)[C@H]3CC[C@@]21C` [medroxyprogesterone acetate], in assay [5], the IC50 was 6.6 µM.
On to `CC(=O)O[C@]1(C(C)=O)CC[C@H]2[C@@H]3C=C(C)C4=CC(=O)CC[C@@H]4[C@H]3CC[C@@]21C` [nomegestrol acetate], for which the Emax in assay [1] (setting [6]) amounted to 19%. Moreover, the EC50 in assay [1] (setting [7]) worked out at 22.7 µM. Besides, the “Max P4 inhibition (%) (± SD)” value in assay [2] was 12 (±17) %. The figures for the IC50 in assay [2] (setting [8]) and in assay [3] (setting [9]) were 41.2 µM and 52 µM, respectively.
On to `C[C@]12C/C(=C/O)C(=O)C[C@@H]1CC[C@@H]1[C@@H]2CC[C@@]2(C)[C@H]1CC[C@]2(C)O` [oxymetholone], for which the EC50 in assay [1] (Mean EC50 µM (±SD), pooled from 3 independent experiments) was 1.3 µM. The Emax in assay [1] turned out to be 82%. The “Max P4 inhibition (%) (± SD)” value in assay [2] is 62 (±9) %. Further, the IC50 came to 4.74 µM in assay [2] (Mean IC50 (P4) µM (±SD), P4-induced response, pooled from 3 independent experiments) and 11.8 µM in assay [3].
Consider `C[C@H](CCC(=O)O)[C@H]1CC[C@H]2[C@@H]3[C@@H](O)C[C@@H]4C[C@H](O)CC[C@]4(C)[C@H]3CC[C@]12C` [urosiol], for which, in assay [1] (setting [6]), the “Max amplitude (%) (± SD)” value was 25 (±8) %. The EC50 in assay [1] (setting [7]) is 7.89 µM. Moreover, the “Max P4 inhibition (%) (± SD)” value in assay [2] is listed as 13 (±3) %. For the same compound, in assay [3] (setting [9]), the IC50 came out at 12.2 µM.
